Reference: patent US20120184562A1, “1,6- AND 1,8-NAPHTHYRIDINES” (priority 2011, published 2012)
Counter-ions that a name gives are not always drawn. Like-named read-outs stand apart in the source and are kept apart here.

Assays:
[1] = system: SW620 human colon cancer cells; assay: SW620 Cell Viability Assay; assay type: cell-based; settings: SW-620, 96 h, 4 days incubation, CellTiter-Glo Luminescent Cell Viability Assay, read-out: Cellular EC50 (μM) SW620
Procedure: SW620 Cell Viability Assay
1. Cell Plate Preparation: SW620 human colon cancer cells (known to express DYRK1B), obtained from ATCC, were seeded into 96-well plates at 3×10^3 cells/well in 50 μL of media. • Harvested the required number of cells (counts & viability determined by Guava Viacount). • Centrifuge cells to pellet and removed supernant. • Resuspended in growth media (50 μL/well) & pipetted thoroughly to break up clumps. • Setup for ˜100 wells/plate, therefore, VT=5 mL/plate @ […]. 1A. Some cells (S—) were allowed to attach for 24 hrs, serum starved for 48 hrs, and then followed with drug treatments. Test compound solution were prepared in regular corresponding media supplemented with serum. 2. Test Compound Preparation: Test compounds were solubilized in either DMSO or media and prepared at various stock concentrations. • All compounds were incubated at 37° C. for 30 minutes and vortexed. • (5 mM stocks of test compound were prepared for non-soluble compounds)
• The 10 mM test compound stock was diluted to a concentration of 100× the final Cmax concentration. • Then the test compound stock is diluted 50-fold in media and/or second compound for a final Cmax concentration in the test compound plate. • The Cmax in the test compound plate (2% DMSO) is 2-fold higher than the final Cmax in the cell plate (60 uL titrations were 1:3). 4. Viability Assay: This assay was performed as follows: • Transfer 50 μL of test compound solution per well from the test compound plate onto the cell plate prepared in Step #1. • Mix the plate with treated cells by pipetting up and down three times with 200 μL multi-channel pipette. • Incubate the cells in 5% CO2 incubator @ 37° C. for 4 days. • Run the CellTiter-Glo™ Luminescent Cell Viability Assay.
The results of this assay, given as EC50 values, indicate the concentration of test compound that inhibits tumor cell proliferation by 50%.

Human DYRK1B = molecular target: T1, Human DYRK1B (Homo sapiens, UniProt Q9Y463); assay: DYRK1B Kinase TR-FRET (IMAP-Tb) Assay; assay type: biochemical
T1 construct: purchased Invitrogen PR8350B (former PV4649)
From the text: DYRK1B Kinase TR-FRET (IMAP-Tb) Assay The kinase TR-FRET (IMAP-Tb) assay uses a fluorescence labeled substrate peptide in the kinase reaction. Upon phosphorylation by the kinase, phosphopeptide is produced, which will be detected by the binding solution provided in IMAP TR-FRET binding kit. After the completion of the kinase reaction, the reaction will be stopped by adding the binding solution containing terbium tracer. This tracer is immobilized on the surface of the IMAP beads, which also contain metal ions on the beads that bind to the phospho-groups of the products. Thus the phosphorylated product of the reaction can enter into close proximity to the tracer, producing resonance energy transfer. Due to the long lifetime of terbium (Tb) fluorescence the detection can be run in time resolved mode, which virtually eliminates fluorescence interference from assay components or compounds. The TR-FRET signal measurement from this assay, given as an IC50 measurement, is a measure of a test compound's ability to interfere with the phosphorylation of the peptide substrate, that is it inhibits the phosphorylation of the substrate peptide by DYRK1B, and is thus a measure of the test compound's ability to inhibit the activity of DYRK1B. […] Human DYRK1B: from Invitrogen. Part #PR8350B (former PV4649) • 2. Substrate Peptide: in-house synthesized: RRRFRPASPLRGPPK • 3. IMAP TR-FRET IPP Explorer Kit: from Molecular Devices. Part #R8157 • 4. Kinase Assay Buffer (KAB): 10 mM HEPES pH 7.0, 50 mM NaCl, 5 mM MgCl2, 1 mM DTT, 1 mM NaVO4, 200 μg/mL BSA (0.02%) • 5. Assay Plate: Remp polypropylene clear 384-well microplate. Cat#23490-102 • 6. Detection Plate: Costa black 384-well microplate. Cat #3710 Assay Procedure: This assay was performed as follows: • 1. Transfer 1.5 μL of 20× compound solution to each well of an assay plate. • 2. Add to each well 22.5 μL of KAB Buffer. • 3. Add to each well 3 μL of the solution of DYRK1B and ATP. […] Add to each well 3 μL of the substrate peptide. The assay concentration is 1.0 μM • 5. Incubate the assay plates at 37° C. for 60 minutes. • 6. Add 18 μL of Detection Solution (1:800 diluted Progress bead stock, 1:400 diluted Tb stock, 80% Buffer A, and 20% Buffer B) into each well of detection plates. • 7. Transfer 6 μL of assay solution from the assay plate to the detection plate. • 8. Shake detection plates for 30 minutes. • 9. Read plates in Envision with wavelength set at excitation 340 nm for Tb, emission 490 nm, and […] 520 nm. • 10. Calculation: TR-FRET Signal=(Reading at […]/Reading at 490 nM)×2000000

Human DYRK1A = molecular target: T2, Human DYRK1A (Homo sapiens, UniProt Q13627); assay: DYRK1A Kinase TR-FRET (IMAP-Tb) Assay; assay type: biochemical; settings: TR-FRET (IMAP-Tb); ATP 70 μM; 37° C., 60 minutes; average of multiple runs; read-out: Enzyme IC50 (μM) DYRK1A
T2 construct: purchased Invitrogen PV3997
From the text: DYRK1A Kinase TR-FRET (IMAP-Tb) Assay
The kinase TR-FRET (IMAP-Tb) assay uses a fluorescence labeled substrate peptide in the kinase reaction. Upon phosphorylation by the kinase, phosphopeptide is produced, which will be detected by the binding solution provided in IMAP TR-FRET binding kit. After the completion of the kinase reaction, the reaction will be stopped by adding the binding solution containing terbium tracer. This tracer is immobilized on the surface of the IMAP beads, which also contain metal ions on the beads that bind to the phospho-groups of the products. Thus the phosphorylated product of the reaction can enter into close proximity to the tracer, producing resonance energy transfer. Due to the long lifetime of terbium (Tb) fluorescence the detection can be run in time resolved mode, which virtually eliminates fluorescence interference from assay components or compounds.
The TR-FRET signal measurement from this assay, given as an IC50 measurement, is a measure of a test compound's ability to interfere with the phosphorylation of the peptide substrate, that is it inhibits the phosphorylation of the substrate peptide by DYRK1A, and is thus a measure of the test compound's ability to inhibit the activity of DYRK1A.
• 1. Human DYRK1A: from Invitrogen. Part #PV3997 • 2. Substrate Peptide: […] • 3. IMAP TR-FRET IPP Explorer Kit: from Molecular Devices. Part #R8157 • 4. Kinase Assay Buffer (KAB): 10 mM HEPES pH 7.0, 50 mM NaCl, 5 mM MgCl2, 1 mM DTT, 1 mM NaVO4, 200 μg/mL BSA (0.02%) • 5. Assay Plate: Remp polypropylene clear 384-well microplate. […] Detection Plate: Costa black 384-well microplate. […] Transfer 1.5 μL of 20× compound solution to each well of an assay plate. • 2. Add to each well 22.5 μL of KAB Buffer. • 3. Add to each well 3 μL of the solution of DYRK1A and ATP. […] Add to each well 3 μL of the substrate peptide. The assay concentration is 1.0 μM • 5. Incubate the assay plates at 37° C. for 60 minutes. • 6. Add 18 μL of Detection Solution (1:800 diluted Progress bead stock, 1:400 diluted Tb stock, 80% Buffer A, and 20% Buffer B) into each well of detection plates. • 7. Transfer 6 μL of assay solution from the assay plate to the detection plate. • 8. Shake detection plates for 30 minutes. • 9. Read plates in Envision with wavelength set at excitation 340 nm for Tb, emission 490 nm, and […].

[2] = TR-FRET (IMAP-Tb), ATP 70 μM, 37° C., 60 minutes, average of multiple runs, read-out: Enzyme IC50 (μM) DYRK1B

T1 sequence (Q9Y463 whole entry): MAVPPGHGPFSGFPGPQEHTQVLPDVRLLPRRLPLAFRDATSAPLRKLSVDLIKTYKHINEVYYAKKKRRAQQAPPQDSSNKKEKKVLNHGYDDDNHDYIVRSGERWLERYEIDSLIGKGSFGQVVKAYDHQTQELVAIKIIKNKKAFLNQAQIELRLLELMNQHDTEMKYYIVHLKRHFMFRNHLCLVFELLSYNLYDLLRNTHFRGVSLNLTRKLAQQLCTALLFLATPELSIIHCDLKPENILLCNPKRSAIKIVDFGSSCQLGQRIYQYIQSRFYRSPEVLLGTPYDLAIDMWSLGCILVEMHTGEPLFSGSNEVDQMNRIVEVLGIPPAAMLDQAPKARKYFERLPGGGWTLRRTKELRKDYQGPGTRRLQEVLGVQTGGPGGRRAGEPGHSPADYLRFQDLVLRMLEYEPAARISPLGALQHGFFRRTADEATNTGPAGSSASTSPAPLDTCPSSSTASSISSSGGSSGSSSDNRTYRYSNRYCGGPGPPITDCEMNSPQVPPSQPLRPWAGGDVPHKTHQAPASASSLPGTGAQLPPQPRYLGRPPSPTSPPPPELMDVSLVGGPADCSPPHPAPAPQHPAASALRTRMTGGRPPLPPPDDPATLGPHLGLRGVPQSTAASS

SMILES	EC50 [1]	IC50 (Human DYRK1B; [2])	IC50 (Human DYRK1A)	IC50 (Human DYRK1B)
COC(=O)c1ccc(Cl)c(NC(=O)c2cc3cnc(N4CCN(C)CC4)cc3[nH]c2=O)c1 [Example 73, 4-Chloro-3-{[7-(4-methyl-piperazin-1-yl)-2-oxo-1,2-dihydro-[1,6]naphthyridine-3-carbonyl]-amino}-benzoic acid methyl ester]	> 10 µM	0.96 µM	0.425 µM	–
COc1cc2[nH]c(=O)c(C(=O)Nc3cc(C(=O)NCc4ccsc4)ccc3C)cc2cn1 [Example 38, 7-Methoxy-2-oxo-1,2-dihydro-[1,6]naphthyridine-3-carboxylic acid {2-methyl-5-[(thiophen-3-ylmethyl)-carbamoyl]-phenyl}-amide]	> 10 µM	0.424 µM	0.266 µM	–
COc1cc2[nH]c(=O)c(C(=O)Nc3cc(C(=O)NC(CN)c4cccc(Cl)c4)ccc3Cl)cc2cn1 (stereo not shown) [Example 51, 7-Methoxy-2-oxo-1,2-dihydro-[1,6]naphthyridine-3-carboxylic acid {5-[2-amino-1-(3-chloro-phenyl)-ethylcarbamoyl]-2-chloro-phenyl}-amide; hydrochloride]	0.373 µM	0.119 µM	0.0198 µM	–
COC(=O)c1ccc(Cl)c(NC(=O)c2cc3ccc(N4CCN(C)CC4)nc3[nH]c2=O)c1 [Example 88, 4-Chloro-3-{[7-(4-methyl-piperazin-1-yl)-2-oxo-1,2-dihydro-[1,8]naphthyridine-3-carbonyl]-amino}-benzoic acid methyl ester]	1.53 µM	0.513 µM	0.451 µM	–
COc1cc2[nH]c(=O)c(C(=O)Nc3cc(C(=O)NCc4ccccc4)ccc3C)cc2cn1 [Example 33, 7-Methoxy-2-oxo-1,2-dihydro-[1,6]naphthyridine-3-carboxylic acid (5-benzylcarbamoyl-2-methyl-phenyl)-amide]	1.47 µM	0.484 µM	2.15 µM	–
COc1cc2[nH]c(=O)c(C(=O)Nc3cc(C(=O)NC(CN)c4ccccc4)ccc3Cl)cc2cn1 (stereo not shown) [Example 45, 7-Methoxy-2-oxo-1,2-dihydro-[1,6]naphthyridine-3-carboxylic acid [5-(2-amino-1-phenyl-ethylcarbamoyl)-2-chloro-phenyl]-amide; hydrochloride]	0.177 µM	0.014 µM	0.0115 µM	–
COc1cc2[nH]c(=O)c(C(=O)Nc3cc(C(=O)NC(CCN)c4ccccc4)ccc3C)cc2cn1 (stereo not shown) [Example 61, 7-Methoxy-2-oxo-1,2-dihydro-[1,6]naphthyridine-3-carboxylic acid [5-(3-amino-1-phenyl-propylcarbamoyl)-2-methyl-phenyl]-amide; hydrochloride]	2.27 µM	0.155 µM	0.034 µM	–
COc1cc2[nH]c(=O)c(C(=O)Nc3cc(C(=O)NC(CN)c4ccsc4)ccc3Cl)cc2cn1 (stereo not shown) [Example 71, 7-Methoxy-2-oxo-1,2-dihydro-[1,6]naphthyridine-3-carboxylic acid [5-(2-amino-1-thiophen-3-yl-ethylcarbamoyl)-2-chloro-phenyl]-amide; hydrochloride]	0.137 µM	–	–	< 0.0046 µM
COC(=O)c1ccc(C)c(NC(=O)c2cc3cnc(NCC(O)CO)cc3[nH]c2=O)c1 (stereo not shown) [Example 49, 3-{[7-(2,3-Dihydroxy-propylamino)-2-oxo-1,2-dihydro-[1,6]naphthyridine-3-carbonyl]-amino}-4-methyl-benzoic acid methyl ester; hydrochloride]	> 10 µM	0.537 µM	0.3 µM	–
COC(=O)c1ccc(Cl)c(NC(=O)c2cc3ccc(OC)nc3[nH]c2=O)c1 [Example 90, 4-Chloro-3-[(7-methoxy-2-oxo-1,2-dihydro-[1,8]naphthyridine-3-carbonyl)-amino]-benzoic acid methyl ester]	> 10 µM	0.168 µM	> 10 µM	–
COc1cc2[nH]c(=O)c(C(=O)Nc3cc(C(=O)NC(CCN)c4cccc(Cl)c4)ccc3C)cc2cn1 (stereo not shown) [Example 65, 7-Methoxy-2-oxo-1,2-dihydro-[1,6]naphthyridine-3-carboxylic acid {5-[3-amino-1-(3-chloro-phenyl)-propylcarbamoyl]-2-methyl-phenyl}-amide; hydrochloride]	0.915 µM	0.21 µM	0.0974 µM	–
COc1cc2[nH]c(=O)c(C(=O)Nc3cc(C(=O)NC(CCN)c4ccsc4)ccc3Cl)cc2cn1 (stereo not shown) [Example 53, 7-Methoxy-2-oxo-1,2-dihydro-[1,6]naphthyridine-3-carboxylic acid [5-(3-amino-1-thiophen-3-yl-propylcarbamoyl)-2-chloro-phenyl]-amide]	0.0524 µM	–	–	0.0138 µM
